Test results: patent US8546352B2, “Pharmacological preparation for topical use containing N-palmitoyl-vanillamide” (Epitech Group S.r.l., priority 2010, dated 2013)

Legend:
[1] = system: capsaicin-induced eye-wiping movements in mice; experiment: Eye-wiping assay in mice, effect on capsaicin-induced wiping; assay type: in vivo, mouse; details: for Capsaicin-induced wiping movements after Palvanil: same eye
[2] = system: eye-wiping movements in mice; details: mouse
[3] = target: T1, recombinant human TRPV1 (HEK-293 cells) (Homo sapiens, UniProt Q8NER1); experiment: Desensitization of capsaicin (10 nM)-induced TRPV1-mediated elevation of intracellular [Ca2+]; assay type: cell-based
T1 construct: expressed in transfected cells
T1 sequence (Q8NER1 whole entry): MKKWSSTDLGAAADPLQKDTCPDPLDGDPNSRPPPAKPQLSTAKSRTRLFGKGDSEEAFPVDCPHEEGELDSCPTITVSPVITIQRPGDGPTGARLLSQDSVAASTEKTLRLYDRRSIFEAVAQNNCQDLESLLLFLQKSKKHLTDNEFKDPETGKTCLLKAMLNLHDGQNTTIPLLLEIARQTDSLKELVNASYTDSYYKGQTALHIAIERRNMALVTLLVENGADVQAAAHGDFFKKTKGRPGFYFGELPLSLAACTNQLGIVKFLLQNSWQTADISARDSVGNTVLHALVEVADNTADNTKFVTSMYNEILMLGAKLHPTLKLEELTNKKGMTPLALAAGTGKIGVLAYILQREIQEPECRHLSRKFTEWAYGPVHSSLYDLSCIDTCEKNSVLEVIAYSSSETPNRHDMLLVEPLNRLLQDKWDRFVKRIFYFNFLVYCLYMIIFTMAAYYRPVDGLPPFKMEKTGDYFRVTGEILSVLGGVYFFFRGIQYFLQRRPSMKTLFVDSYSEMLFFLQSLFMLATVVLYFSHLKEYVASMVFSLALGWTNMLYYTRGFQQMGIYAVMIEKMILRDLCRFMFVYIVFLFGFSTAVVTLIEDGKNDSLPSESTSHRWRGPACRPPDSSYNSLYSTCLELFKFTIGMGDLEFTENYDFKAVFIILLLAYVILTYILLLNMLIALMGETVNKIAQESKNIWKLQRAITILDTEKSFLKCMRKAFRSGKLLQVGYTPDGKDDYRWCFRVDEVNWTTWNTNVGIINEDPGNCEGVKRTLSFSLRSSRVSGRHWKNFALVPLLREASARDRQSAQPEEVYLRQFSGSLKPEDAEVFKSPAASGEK

[4] = target: T1, recombinant human TRPV1 (HEK-293 cells); experiment: Desensitization of anandamide/low pH-induced TRPV1-mediated elevation of intracellular [Ca2+]; assay type: cell-based; details: for IC50: read-out: IC50, desensitization of anandamide effect
[5] = target: T1, recombinant human TRPV1 (HEK-293 cells); experiment: TRPV1-mediated elevation of intracellular [Ca2+] (agonist activity); assay type: cell-based

## C=C(C)[C@]12C[C@@H](C)[C@@]34O[C@](Cc5ccccc5)(O[C@@H]1[C@@H]3C=C(COC(=O)Cc1cc(I)c(O)c(OC)c1)C[C@]1(O)C(=O)C(C)=C[C@@H]41)O2 [I-RTX, 5′-iodo-resiniferatoxin, reference compound]
[1]; mouse, in vivo
  Effect of I-RTX pre-treatment on Palvanil's reduction of capsaicin-induced wiping: completely reverted
[2]; in vivo
  Eye-wiping reflexes per se: did not cause any reflexes per se

## CCCCCCCCCCCCCCCC(=O)NCc1ccc(O)c(OC)c1 [Palvanil, N-(4-hydroxy-3-methoxybenzyl)palmitoylamide]
[3]; 2 nM Palvanil, 10 nM capsaicin stimulation
  Pre-incubation time at which desensitizing effect reached a maximum: ~50 min
[3]; read-out: IC50, desensitization of TRPV1 to the effect of capsaicin, 10 nM capsaicin, compound given 5 min before
  IC50: 0.81 ± 0.07 nM
[4]; 1 nM compound, 0.5 μM AEA, at both pH values
  Inhibitory effect on anandamide response: > 50%
[4]; 0.5 μM AEA, acid pH (6.5)
  IC50: 0.3 ± 0.01 nM
[4]; 0.5 μM AEA, pH 6.5 vs pH 7.4
  Fold more potent at the lower pH: 90 fold
[4]; 0.5 μM AEA, physiological pH (7.4)
  IC50: 0.9 ± 0.1 nM
[4]; anandamide 0.25 mM (so in the source), acid pH
  IC50: 0.5 ± 0.02 nM
[5]; HEK-293-TRPV1 cells, Fluo-4, read-out: EC50, increase in intracellular calcium
  EC50: 0.65 ± 0.04 nM
[1]; Palvanil 10 μg/ml, 1 hour before capsaicin 10 μg/ml
  Capsaicin-induced wiping movements after Palvanil: 8.2±0.9 wiping movements
[1]; Palvanil 10 μg/ml, 3 hours before capsaicin 10 μg/ml
  Capsaicin-induced wiping movements after Palvanil: 7.0±0.9 wiping movements
[1]; Palvanil 30 μg/ml, 1 hour before capsaicin 10 μg/ml
  Capsaicin-induced wiping movements after Palvanil: 6.7±0.7 wiping movements
[1]; Palvanil 30 μg/ml, 3 hours before capsaicin 10 μg/ml
  Capsaicin-induced wiping movements after Palvanil: 6.0±0.8 wiping movements

## COc1cc(CNC(=O)CCCC/C=C/C(C)C)ccc1O [capsaicin, reference compound]
[3]; 10 nM capsaicin pre-incubation, 10 nM capsaicin stimulation
  Desensitizing effect at different pre-incubation times, compared with Palvanil: significantly less pronounced desensitizing effect
[5]; different concentrations, greatest difference at 1 μM, capsaicin vs Palvanil
  Speed of TRPV1 activation (time to achieve 90% of total TRPV1 mediated calcium influx): always significantly faster
[2]; capsaicin solution 10 μg/ml into the eye
  Wiping movements monitored within 30 seconds: 12±0.9 wiping movements
